Data set [1] concerns 4T1 mice breast carcinoma cells, mammary fat pad tumor. Nature of the data set: Histological study of mammary tissue and lung of tumor-bearing mice. In kind it is in vivo, BALB/c mice. The settings on record: for number of cells per unit area (480 px × 400 px) of lung histological sections: tumor-induced 213 ± 20, control 143 ± 19, mean ± SD. How it is done: (§1) Solid tumors were developed in BALB/c mice (n = 3) except the control group (group I) by injecting 1 × 10^4 viable 4T1 (RRID: CVCL_0125) mice breast carcinoma cells (resuspended in 50 μl of PBS) into the inguinal fourth mammary fat pad, and the tumor was allowed to develop for 14 days ([37], [38]). Mice were randomly divided into three groups, viz., untreated tumor (group II), mice treated intraperitoneally with 1 mg//kg bodyweight of rolipram (group III), and mice receiving 5 mg/kg bodyweight of rolipram, intraperitoneally (group IV) ([39], [40]). After 14 days, the mice were sacrificed. Lung, kidney, liver, serum, and the tumors were collected for further experiments ([15]).
Tissue samples of mammary tissue, lung, kidney, and liver from each group of mice were fixed in Bouin’s solution (Sigma–Aldrich; catalog no.: HT10132), dehydrated in graded alcohol, and embedded in paraffin wax. Thin sections (5 μm) of tissues were mounted on glass slides and stained with hematoxylin (Sigma–Aldrich; catalog no.: H3136), following rehydration with graded alcohol. The samples were again dehydrated with graded alcohol and stained with eosin and mounted with Dystyrene Plasticizer Xylene ([42]). The images were obtained in an Olympus CKX53 Inverted Microscope (RRID: SCR_025025) at 10X magnifications with MagVision Software (Magnus). The QuPath (RRID: SCR_018257) software ([43]) was used to detect the cells and determine the area of individual cells and their corresponding nuclei in each image. The tab-delimited text file obtained from QuPath software was utilized by NumPy ([44]) (RRID: SCR_008633) to determine the nucleus-to-cytoplasm ratio of individual cells, and the frequency (cell count) of the nucleus-to-cytoplasm ratio was plotted by MatPlotLib (RRID: SCR_008624), a Python (RRID: SCR_008394) 2D plotting library. For quantifying the number of cells in a unit area of histological section of lung, each section image was divided into 12 equal parts (dimensions: 480 px × 400 px). The number of cells in each part was obtained from QuPath (RRID: SCR_018257) software, and the values were represented as mean ± SD.

Data set [2] is described as follows: Serum biochemical parameters (kidney and liver function) of tumor-induced mice. The note with it: mean ± SD (n = 3); for Kidney function Creatinine: Tumor 0.93 ± 0.15, Normal 0.32 ± 0.06; for Liver function Albumin: Tumor 3.56 ± 0.25, Normal 2.36 ± 0.15; for Liver function Protein: Tumor 4.93 ± 0.15, Normal 5.16 ± 0.20; for Kidney function Urea: Tumor 36.89 ± 3.43, Normal 17.30 ± 2.25. In kind it is in vivo, BALB/c mice. Here is the method: as §1
The total protein in mouse serum was measured by biuret method, which relies on formation of reddish-violet color in alkaline copper solution ([46]). The absorptivity of the colored solution was measured at 570 nm and compared with known protein standards to determine the level of total protein in the serum. The serum urea level of mouse was determined using urea kit (Coral Clinical Systems; catalog no.: 1102240075), which relies on the reaction of phenolic chromogen and hypochlorite with the ammonia formed from urea ([47]). The absorbance of the test sample (AbsT) and standard sample (AbsS) was recorded at 570 nm, and the concentration of urea was determined by the formula urea (mg/dl) = (AbsT/AbsS) × 40, according to the manufacturer’s protocol. Level of serum creatinine was measured using creatinine kit (Coral Clinical Systems; catalog no.: 1101060035). Briefly, this kit utilizes the formation of a colored complex because of reaction between alkaline picric acid solution and creatinine ([48]). The initial absorbance of the test sample (Abs1T) and standard sample (Abs1S) was measured at 520 nm after 30 s of incubation, and the final absorbance of the test sample (Abs2T) and standard sample (Abs2S) was measured exactly after 60 s. The formula, creatinine (mg/dl) = (Abs2T – Abs1T)/(Abs2S – Abs1S) × 2, was used to determine the concentration of creatinine. Activities of AST and ALT were evaluated from the serum of mice using AST assay kit (catalog no.: MAK055) and ALT assay kit (catalog no.: MAK052) from Sigma–Aldrich, following the manufacturer’s protocol. The estimation of AST activity is based on the production of glutamate by the activity of AST present in the serum samples. The absorbance of the colored product was measured at 450 nm and compared with known standard samples to determine the activity ([49]). Similarly, the ALT assay kit is based on the production of pyruvate in the presence of ALT in serum. The activity of the ALT in mouse serum was determined by measuring the absorbance of the colored product at 570 nm and comparing with the known standard samples ([50]). All the spectrophotometric analyses were carried out in Bio-Rad iMark Microplate Reader (RRID: SCR_023799).

The test system of the next data set is MCF-7 cells. Nature of the data set: Annexin V-FITC and PI double staining. In kind it is cell-based, human. The settings on record: MCF-7, IC50 dose, 24 h. Here is the method:
(§2) To analyze if the cells have undergone necrosis or apoptosis because of 24 h of rolipram treatment, cells were double stained with Annexin V-FITC and PI using BD Pharmingen Annexin V:FITC Apoptosis Detection Kit (BD Biosciences; catalog no.: BD556547) using the manufacturer’s protocol. The data obtained from BD LSRFortessa flow cytometer (RRID: SCR_019600) were analyzed using BD FACSDiva 9.0 software ([31], [32]) (RRID: SCR_001456).

The test system of the next data set is MDA-MB-231 cells. Nature of the data set: Annexin V-FITC and PI double staining. The format is cell-based, human. The note with it: MDA-MB-231, IC50 dose, 24 h. Here is the method:
as §2

For `COc1ccc(C2CNC(=O)C2)cc1OC1CCCC1` (stereo not shown) [rolipram, Rolipram], in data set [1] (1 mg/kg bodyweight), the “number of cells per unit area (480 px × 400 px) of lung histological sections” value was determined as 154 ± 11. Moreover, the “number of cells per unit area (480 px × 400 px) of lung histological sections” value in data set [1] (5 mg/kg bodyweight) amounted to 119 ± 10. In data set [1] (rolipram-treated tumor-bearing mice), the “metastatic cellular infiltration in the lung tissues” value is “significantly reduce”. Further, the “multinucleated cells in the mammary fat pad and glandular region” value in data set [1] (rolipram-treated tumor-bearing mice, p < 0.001) is listed as “reduced”. Moreover, in data set [2] (Tumor + 1 mg/kg), the “Kidney function Creatinine” value was found to be 0.45 ± 0.08 mg/dL, the “Liver function Albumin” value came to 2.73 ± 0.15 g/dL, the “Liver function Protein” value is 5.30 ± 0.10 g/dL and the “Kidney function Urea” value came out at 20.39 ± 3.06 mg/dL. The “Liver function AST” value in data set [2] (Tumor + 1 mg/kg, Tumor 135.85 ± 11.7, Normal 85.23 ± 7.97) was found to be 119.69 ± 10.1 U/L. Further, in data set [2] (Tumor + 5 mg/kg), the “Kidney function Creatinine” value amounted to 0.50 ± 0.05 mg/dL, the “Liver function Albumin” value stood at 2.66 ± 0.05 g/dL, the “Liver function Protein” value is 4.90 ± 0.20 g/dL and the “Kidney function Urea” value came out at 22.08 ± 2.34 mg/dL. Besides, the “Liver function ALT” value in data set [2] (Tumor + 5 mg/kg, Tumor 55.77 ± 2.38, Normal 43.31 ± 0.88) was determined as 55.69 ± 4.97 U/L. Besides, the “increase in the dead cell population” value in the data set with MCF-7 cells came out at 8.1%. Moreover, the “increase in the dead cell population” value with MDA-MB-231 cells is listed as 5.2%.

For the origin of these results see article PMC11879692, “PDE4 inhibitor rolipram represses hedgehog signaling via ubiquitin-mediated proteolysis of GLI transcription factors to regress breast cancer” (The Journal of Biological Chemistry, 2025).
